Assay results: paper PMC6747318, “Mutual Enhancement of Opioid and Adrenergic Receptors by Combinations of Opioids and Adrenergic Ligands Is Reflected in Molecular Complementarity of Ligands: Drug Development Possibilities” (International Journal of Molecular Sciences, 2019)

How the values were obtained:
[1] = UV spectroscopy binding between compounds: binding to morphine sulfate; conditions: read-out: Kd @ 200 nm, binding to Morph; UV spectroscopy, pH 7.4 sodium phosphate buffer; single binding constant
[2] = UV spectroscopy binding between compounds: binding to methadone; conditions: pH 7.4 sodium phosphate buffer, read-out: Kd @ 200 nm, binding to Meth
[3] = UV spectroscopy binding between compounds: binding to naloxone; conditions: pH 7.4 sodium phosphate buffer, read-out: Kd @ 200 nm, binding to NAL
[4] = UV spectroscopy binding between compounds: binding to amphetamine; conditions: read-out: Kd @ 200 nm, binding to Amph; UV spectroscopy, pH 7.4 sodium phosphate buffer; single binding constant
[5] = UV spectroscopy binding between compounds: binding to propranolol; conditions: read-out: Kd @ 200 nm, binding to Prop; UV spectroscopy, pH 7.4 sodium phosphate buffer; single binding constant
[6] = UV spectroscopy binding between compounds: binding to ascorbic acid; conditions: read-out: Kd @ 200 nm, binding to Asc, pH 7.4 sodium phosphate buffer
[7] = UV spectroscopy binding between compounds: binding to glucose; conditions: read-out: Kd @ 200 nm, binding to Glucose, pH 7.4 sodium phosphate buffer
[8] = UV spectroscopy binding between compounds: binding to riboflavin; conditions: pH 7.4 sodium phosphate buffer, read-out: Kd @ 200 nm, binding to Ribo
[9] = molecular target: T1, dopamine D1 receptor (D1DR) 89–98 (Homo sapiens, UniProt P21728); assay: UV spectroscopy binding to receptor peptide D1DR 89–98
T1 construct: D1DR 89–98
Procedure: (§1) After the solutions were made, a 96-well quartz crystal plate was prepared to be run through the spectrophotometer at room temperature (ca. 24 °C). […] The absorbance of each receptor peptide without the presence of the adrenergic compound was measured as well. The absorbance of each well was measured at every 10 nm increment from 190 nm to 260 nm. The maximum absorbance that can be measured was set to four. Each well had 200 μL of solution, so if the absorbance of one component was being measured, it was diluted by half with a phosphate buffer.
(§2) If the measured absorbance is different than the additive absorbance of each compound, then that indicates some sort of molecular interaction. The binding can be quantified by graphing the difference in absorbance against the concentration of the compound varied to provide a binding curve. The data are analyzed by finding the additive absorbance and plotting the difference between this absorbance and the actual absorbance against the concentration of the adrenergic compound. The absorbance for the phosphate buffer is subtracted for each well before any calculations are done. […] The binding constants were estimated from the half-saturation point.

[10] = molecular target: T2, dopamine D1 receptor (D1DR) 170–188 (Homo sapiens, UniProt P21728); assay: UV spectroscopy binding to receptor peptide D1DR 170–188
T2 construct: D1DR 170–188
Procedure: as §1, §2

[11] = molecular target: T3, beta 2 adrenergic receptor (B2AR) 97–103 (Homo sapiens, UniProt P07550); assay: UV spectroscopy binding to receptor peptide B2AR 97–103
T3 construct: B2AR 97–103
Procedure: as §1, §2

[12] = molecular target: T4, beta 2 adrenergic receptor (B2AR) 175–188 (Homo sapiens, UniProt P07550); assay: UV spectroscopy binding to receptor peptide B2AR 175–188
T4 construct: B2AR 175–188
Procedure: as §1, §2

methionine-enkephalin = methionine-enkephalin (Homo sapiens, UniProt P01210); assay: UV spectroscopy binding between compounds: binding to methionine-enkephalin; parameters: M-Enk = methionine-enkephalin; purchased Sigma-Aldrich; conditions: Kd @ 200 nm, binding to M-Enk, UV spectroscopy, pH 7.4 sodium phosphate buffer; single binding constant
[13] = molecular target: intact mu opioid receptors (muOPRs) (Homo sapiens, UniProt P35372); format: binding; parameters: intact mu opioid receptors (muOPRs); deca-histidine tag (N); made in house; host or cells: E. coli C43 (DE3)
intact mu opioid receptors (muOPRs), sequence (P35372 whole entry): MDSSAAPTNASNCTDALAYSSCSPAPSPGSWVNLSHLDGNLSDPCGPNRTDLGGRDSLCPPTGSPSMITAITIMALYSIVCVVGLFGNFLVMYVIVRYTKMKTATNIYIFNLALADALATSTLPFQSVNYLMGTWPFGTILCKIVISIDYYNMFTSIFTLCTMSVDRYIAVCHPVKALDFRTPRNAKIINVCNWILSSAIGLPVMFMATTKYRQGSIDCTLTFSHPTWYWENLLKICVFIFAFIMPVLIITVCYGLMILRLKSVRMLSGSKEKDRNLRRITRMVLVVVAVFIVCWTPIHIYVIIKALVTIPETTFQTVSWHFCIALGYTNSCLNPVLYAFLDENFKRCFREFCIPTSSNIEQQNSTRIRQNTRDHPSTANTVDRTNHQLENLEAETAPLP

CC(=O)OCC[N+](C)(C)C [Acetylcholine]
> 1000 µM: Kd [1] | Kd [2] | Kd [3] | Kd [4] | Kd [5] | Kd [6] | Kd [7] | Kd [8] | Kd [9] | Kd [10] | Kd [11] | Kd [12]
80 µM: Kd (methionine-enkephalin)
no observable bind: ligand binding to intact muOPRs [13]
